In patent publication US20260062387A1, “SALT-INDUCIBLE KINASE INHIBITOR COMPOUND AND PHARMACEUTICAL COMPOSITION INCLUDING THE SAME” (MITSUBISHI TANABE PHARMA CORPORATION, priority 2023, published 2026):

Experiments:
Assay type in all cases: biochemical
GST-tagged SIK1 = GST-tagged SIK1 (Homo sapiens (Human), UniProt P57059); test: SIK1 inhibition test (ADP-Glo Max Assay); details: enzyme 20 nM, AMARA Peptide 200 μM, ATP 1 mM, 2 hours room temperature
Procedure, shortened: (§1)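 GST-tagged human SIK1, SIK2 and SIK3 at 20 nM, 3 nM and 100 nM final in Tris pH 7.5 buffer, with AMARA peptide (200 μM for SIK1/SIK2, 100 μM for SIK3), 1 mM ATP and 5 mM MgCl2. Reaction ran 2 h at room temperature. ADP read by ADP-Glo Max luminescence, and IC50 fitted from 16 concentrations.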

GST-tagged SIK2 = GST-tagged SIK2 (Homo sapiens (Human), UniProt Q9H0K1); test: SIK2 inhibition test (ADP-Glo Max Assay); details: enzyme 3 nM, AMARA Peptide 200 μM, ATP 1 mM, 2 hours room temperature
Procedure, shortened: as §1

GST-tagged SIK3 = GST-tagged SIK3 (Homo sapiens (Human), UniProt Q9Y2K2); test: SIK3 inhibition test (ADP-Glo Max Assay); details: enzyme 100 nM, AMARA Peptide 100 μM, ATP 1 mM, 2 hours room temperature
Procedure, shortened: as §1

Sequence of GST-tagged SIK3 (Q9Y2K2 whole entry): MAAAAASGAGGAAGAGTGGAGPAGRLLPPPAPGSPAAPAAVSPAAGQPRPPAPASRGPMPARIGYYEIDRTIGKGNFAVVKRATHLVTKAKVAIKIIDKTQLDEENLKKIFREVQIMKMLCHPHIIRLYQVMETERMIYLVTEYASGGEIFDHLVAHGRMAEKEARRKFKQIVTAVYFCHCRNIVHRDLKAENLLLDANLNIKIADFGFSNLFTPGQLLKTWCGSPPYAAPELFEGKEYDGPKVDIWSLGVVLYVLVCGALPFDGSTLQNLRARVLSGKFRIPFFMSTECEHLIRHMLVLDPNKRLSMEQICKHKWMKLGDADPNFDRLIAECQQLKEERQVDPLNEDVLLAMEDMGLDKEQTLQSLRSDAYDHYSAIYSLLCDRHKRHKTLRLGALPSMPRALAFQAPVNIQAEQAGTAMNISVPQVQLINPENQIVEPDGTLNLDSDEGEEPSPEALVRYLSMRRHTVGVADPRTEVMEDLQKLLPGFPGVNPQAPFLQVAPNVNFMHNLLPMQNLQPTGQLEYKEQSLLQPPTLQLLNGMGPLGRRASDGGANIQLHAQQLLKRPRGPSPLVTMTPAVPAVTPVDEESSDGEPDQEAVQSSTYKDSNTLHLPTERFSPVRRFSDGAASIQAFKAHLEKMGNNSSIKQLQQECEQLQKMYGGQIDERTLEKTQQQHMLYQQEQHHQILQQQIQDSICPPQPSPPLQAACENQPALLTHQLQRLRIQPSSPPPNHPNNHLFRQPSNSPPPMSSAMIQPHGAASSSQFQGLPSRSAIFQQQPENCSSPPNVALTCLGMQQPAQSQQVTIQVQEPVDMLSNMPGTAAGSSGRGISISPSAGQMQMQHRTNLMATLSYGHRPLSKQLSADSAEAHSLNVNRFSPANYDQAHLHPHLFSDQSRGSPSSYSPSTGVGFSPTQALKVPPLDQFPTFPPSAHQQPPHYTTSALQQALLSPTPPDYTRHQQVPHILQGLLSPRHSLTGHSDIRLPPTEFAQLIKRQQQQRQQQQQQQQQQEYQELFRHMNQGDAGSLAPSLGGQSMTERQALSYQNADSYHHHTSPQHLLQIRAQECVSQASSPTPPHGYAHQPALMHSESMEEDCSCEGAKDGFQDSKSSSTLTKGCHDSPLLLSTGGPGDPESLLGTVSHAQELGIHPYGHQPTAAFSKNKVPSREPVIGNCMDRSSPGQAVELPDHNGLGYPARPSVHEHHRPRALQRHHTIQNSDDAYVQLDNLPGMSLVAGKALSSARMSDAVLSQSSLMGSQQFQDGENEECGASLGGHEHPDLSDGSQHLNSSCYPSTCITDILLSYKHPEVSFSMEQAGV
Sequence of GST-tagged SIK1 (P57059 whole entry): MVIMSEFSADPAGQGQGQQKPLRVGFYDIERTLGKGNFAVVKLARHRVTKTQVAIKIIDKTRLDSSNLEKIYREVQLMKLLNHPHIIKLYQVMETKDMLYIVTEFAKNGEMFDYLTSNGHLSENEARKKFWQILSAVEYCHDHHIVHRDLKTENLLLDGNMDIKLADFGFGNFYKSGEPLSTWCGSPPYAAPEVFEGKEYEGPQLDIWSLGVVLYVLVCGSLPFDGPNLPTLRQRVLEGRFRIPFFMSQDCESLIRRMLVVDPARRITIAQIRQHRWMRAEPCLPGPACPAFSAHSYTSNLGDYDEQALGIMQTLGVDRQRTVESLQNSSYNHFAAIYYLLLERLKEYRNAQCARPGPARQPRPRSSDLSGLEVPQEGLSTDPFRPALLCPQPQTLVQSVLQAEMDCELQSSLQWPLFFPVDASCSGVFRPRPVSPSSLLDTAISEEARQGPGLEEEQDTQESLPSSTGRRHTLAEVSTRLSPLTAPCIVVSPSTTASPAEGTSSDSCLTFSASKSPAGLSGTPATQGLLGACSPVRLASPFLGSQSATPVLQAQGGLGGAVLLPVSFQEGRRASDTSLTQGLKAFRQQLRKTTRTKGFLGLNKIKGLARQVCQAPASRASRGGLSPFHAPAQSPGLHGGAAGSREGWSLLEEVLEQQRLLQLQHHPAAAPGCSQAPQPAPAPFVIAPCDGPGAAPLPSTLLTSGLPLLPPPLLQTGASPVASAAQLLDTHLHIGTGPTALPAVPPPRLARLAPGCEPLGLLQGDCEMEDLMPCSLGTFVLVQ
Sequence of GST-tagged SIK2 (Q9H0K1 whole entry): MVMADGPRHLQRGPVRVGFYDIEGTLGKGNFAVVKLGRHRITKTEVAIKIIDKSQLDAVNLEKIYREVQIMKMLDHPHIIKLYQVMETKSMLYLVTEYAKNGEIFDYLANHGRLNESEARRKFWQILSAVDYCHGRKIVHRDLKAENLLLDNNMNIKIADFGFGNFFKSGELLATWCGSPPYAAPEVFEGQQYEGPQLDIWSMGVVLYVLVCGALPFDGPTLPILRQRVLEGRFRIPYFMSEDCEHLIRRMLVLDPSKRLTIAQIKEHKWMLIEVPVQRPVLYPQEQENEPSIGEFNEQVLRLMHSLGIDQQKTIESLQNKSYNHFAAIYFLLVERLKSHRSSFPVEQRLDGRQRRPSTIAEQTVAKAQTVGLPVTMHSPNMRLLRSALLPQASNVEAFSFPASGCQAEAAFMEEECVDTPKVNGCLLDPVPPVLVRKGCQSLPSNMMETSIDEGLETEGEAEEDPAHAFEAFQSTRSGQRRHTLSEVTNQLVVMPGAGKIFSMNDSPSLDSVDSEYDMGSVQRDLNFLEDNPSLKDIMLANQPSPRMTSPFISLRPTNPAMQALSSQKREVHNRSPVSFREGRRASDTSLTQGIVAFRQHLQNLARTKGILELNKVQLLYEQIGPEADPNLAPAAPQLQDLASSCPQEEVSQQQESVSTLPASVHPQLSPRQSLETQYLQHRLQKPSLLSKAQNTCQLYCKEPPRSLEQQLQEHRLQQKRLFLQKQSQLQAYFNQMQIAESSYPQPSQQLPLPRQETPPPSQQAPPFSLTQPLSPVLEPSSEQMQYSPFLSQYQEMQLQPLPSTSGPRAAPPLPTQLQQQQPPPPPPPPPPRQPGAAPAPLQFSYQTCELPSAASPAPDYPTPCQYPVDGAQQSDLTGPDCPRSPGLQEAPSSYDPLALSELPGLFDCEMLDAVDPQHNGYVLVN

| Structure (SMILES) | IC50 (GST-tagged SIK1) | IC50 (GST-tagged SIK2) | IC50 (GST-tagged SIK3) |
| --- | --- | --- | --- |
| COc1cc(-c2c3c(OCc4ccnnc4)cc(-c4cnn(C)c4)cc3nn2C)cc(OC(F)F)c1C(=O)N1CC(O)(C(F)(F)F)C1 [Example 51, [2-(difluoromethoxy)-6-methoxy-4-[2-methyl-6-(1-methylpyrazol-4-yl)-4-(pyridazin-4-ylmethoxy)indazol-3-yl]phenyl]-[3-hydroxy-3-(trifluoromethyl)azetidin-1-yl]methanone] | 8.6 nM | 8.9 nM | 14.1 nM |
| COc1cc(-c2c3c(OCc4cnn(C)c4)cc(-c4cnn(C)c4)cc3nn2C)cc(OC(F)F)c1C(=O)N1CC(O)(C(F)(F)F)C1 [Example 52, [2-(difluoromethoxy)-6-methoxy-4-[2-methyl-6-(1-methylpyrazol-4-yl)-4-[(1-methylpyrazol-4-yl)methoxy]indazol-3-yl]phenyl]-[3-hydroxy-3-(trifluoromethyl)azetidin-1-yl]methanone] | 6.2 nM | 6 nM | 9.2 nM |
| COc1cc(-c2c3c(OCc4nnc(C)o4)cc(-c4cnn(C)c4)cc3nn2C)cc(OC(F)F)c1C(=O)N1CC(O)(C(F)(F)F)C1 [Example 53, [2-(difluoromethoxy)-6-methoxy-4-[2-methyl-4-[(5-methyl-1,3,4-oxadiazol-2-yl)methoxy]-6-(1-methylpyrazol-4-yl)indazol-3-yl]phenyl]-[3-hydroxy-3-(trifluoromethyl)azetidin-1-yl]methanone] | 9.1 nM | 7.3 nM | 13.6 nM |
| COc1cc(-c2c3c(C#N)cc(-c4cnn(CCS(C)(=O)=O)c4)cc3nn2C)cc(OC(F)F)c1C(=O)NCC1(F)CC1 [Example 54, 4-[4-cyano-2-methyl-6-[1-(2-methylsulfonylethyl)pyrazol-4-yl]indazol-3-yl]-2-(difluoromethoxy)-N-[(1-fluorocyclopropyl)methyl]-6-methoxybenzamide] | 10.1 nM | 3.2 nM | 5.1 nM |
| Cn1cc(-c2cc(C#N)c3c(-c4ccc(C(=O)N[C@@H]5CC5(F)F)c(OC(F)F)c4)n(C)nc3c2)cn1 [Example 55, 4-[4-cyano-2-methyl-6-(1-methylpyrazol-4-yl)indazol-3-yl]-N-[(1R)-2,2-difluorocyclopropyl]-2-(difluoromethoxy)benzamide] | 10.4 nM | 3.5 nM | 2.4 nM |
| COc1cc(-c2c3c(C#N)cc(-c4cnn(CC(C)(C)O)c4)cc3nn2C)cc(OC(F)F)c1C(=O)NCC1(F)CC1 [Example 56] | 20 nM | 16.1 nM | 11.8 nM |
| COc1cc(-c2c3c(C#N)cc(-c4cnn(C[C@@H](C)O)c4)cc3nn2C)cc(OC(F)F)c1C(=O)NCC1(F)CC1 [Example 57, 4-[4-cyano-6-[1-[(2R)-2-hydroxypropyl]pyrazol-4-yl]-2-methylindazol-3-yl]-2-(difluoromethoxy)-N-[(1-fluorocyclopropyl)methyl]-6-methoxybenzamide] | 16 nM | 10 nM | 9.2 nM |
| COc1cc(-c2c3c(C#N)cc(-c4cnn(C[C@H](C)O)c4)cc3nn2C)cc(OC(F)F)c1C(=O)NCC1(F)CC1 [Example 58, 4-[4-cyano-6-[1-[(2S)-2-hydroxypropyl]pyrazol-4-yl]-2-methylindazol-3-yl]-2-(difluoromethoxy)-N-[(1-fluorocyclopropyl)methyl]-6-methoxybenzamide] | 13.7 nM | 6.7 nM | 6.3 nM |
| COc1cc(-c2c3c(C#N)cc(-c4cnn(CC5COC5)c4)cc3nn2C)cc(OC(F)F)c1C(=O)NCC1(F)CC1 [Example 59, 4-[4-cyano-2-methyl-6-[1-(oxetan-3-ylmethyl)pyrazol-4-yl]indazol-3-yl]-2-(difluoromethoxy)-N-[(1-fluorocyclopropyl)methyl]-6-methoxybenzamide] | 14.1 nM | 3.8 nM | 6.6 nM |
| COc1cc(-c2c3c(C(F)F)cc(-c4cnn(CC(=O)N(C)C)c4)cc3nn2C)cc(OC(F)F)c1C(=O)N1CC(O)(C(F)(F)F)C1 [Example 60, 2-[4-[3-[3-(difluoromethoxy)-4-[3-hydroxy-3-(trifluoromethyl)azetidin-1-carbonyl]-5-methoxyphenyl]-4-(difluoromethyl)-2-methylindazol-6-yl]pyrazol-1-yl]-N,N-dimethylacetamide] | 6.9 nM | 4.8 nM | 4.9 nM |
| COc1cc(-c2c3c(C(F)F)cc(-c4cnn(CC(=O)N(C)C)c4)cc3nn2C)cc(OC(F)F)c1C(=O)N1CC(O)(C(F)F)C1 [Example 61, 2-[4-[3-[3-(difluoromethoxy)-4-[3-(difluoromethyl)-3-hydroxyazetidin-1-carbonyl]-5-methoxyphenyl]-4-(difluoromethyl)-2-methylindazol-6-yl]pyrazol-1-yl]-N,N-dimethylacetamide] | 4.7 nM | 7.4 nM | 7.4 nM |
| COc1cc(-c2c3c(OC(F)F)cc(-c4cn(C)nn4)cc3nn2C)cc(OC(F)F)c1C(=O)N1CC(O)(C(F)F)C1 [Example 63, [2-(difluoromethoxy)-4-[4-(difluoromethoxy)-2-methyl-6-(1-methyltriazol-4-yl)indazol-3-yl]-6-methoxyphenyl]-[3-(difluoromethyl)-3-hydroxyazetidin-1-yl]methanone] | 7.5 nM | 4.3 nM | 9.7 nM |
| COc1cc(-c2c3c(C(F)F)cc(-c4cnn(CCS(C)(=O)=O)c4)cc3nn2C)cc(OC(F)F)c1C(=O)N1CC(O)(C(F)F)C1 [Example 66, [2-(difluoromethoxy)-4-[4-(difluoromethyl)-2-methyl-6-[1-(2-methylsulfonylethyl)pyrazol-4-yl)indazol-3-yl]-6-methoxyphenyl]-[3-(difluoromethyl)-3-hydroxyazetidin-1-yl]methanone] | 11.4 nM | 14.1 nM | 5.7 nM |
| COc1cc(-c2c3c(C(F)F)cc(-c4cnn(C[C@H](C)O)c4)cc3nn2C)cc(OC(F)F)c1C(=O)N1CC(O)(C(F)F)C1 [Example 67, [2-(difluoromethoxy)-4-[4-(difluoromethyl)-6-[1-[(2S)-2-hydroxypropyl]pyrazol-4-yl]-2-methylindazol-3-yl]-6-methoxyphenyl]-[3-(difluoromethyl)-3-hydroxyazetidin-1-yl]methanone] | 8.5 nM | 12.7 nM | 4.8 nM |
| COc1cc(-c2c3c(C(F)F)cc(-c4cn[nH]c4)cc3nn2C)cc(OC(F)F)c1C(=O)N1CC(O)(C(F)(F)F)C1 [Example 68, [2-(difluoromethoxy)-4-[4-(difluoromethyl)-2-methyl-6-(1H-pyrazol-4-yl)indazol-3-yl]-6-methoxyphenyl]-[3-hydroxy-3-(trifluoromethyl)azetidin-1-yl]methanone] | 9.4 nM | 14.2 nM | 2.5 nM |
| COc1cc(-c2c3c(C(F)F)cc(-c4cn[nH]c4)cc3nn2C)cc(OC(F)F)c1C(=O)N1CC(O)(C(F)F)C1 [Example 69, [2-(difluoromethoxy)-4-[4-(difluoromethyl)-2-methyl-6-(1H-pyrazol-4-yl)indazol-3-yl]-6-methoxyphenyl]-[3-(difluoromethyl)-3-hydroxyazetidin-1-yl]methanone] | 8.3 nM | 10.9 nM | 2 nM |
| COc1cc(-c2c3c(C#N)cc(-c4cn[nH]c4)cc3nn2C)cc(OC(F)F)c1C(=O)N1CC(O)(C(F)(F)F)C1 [Example 70, 3-[3-(difluoromethoxy)-4-[3-hydroxy-3-(trifluoromethyl)azetidin-1-carbonyl]-5-methoxyphenyl]-2-methyl-6-(1H-pyrazol-4-yl)indazole-4-carbonitrile] | 15.3 nM | 11.2 nM | 3.7 nM |
| COc1cc(-c2c3c(C#N)cc(-c4cnn(C)c4)cc3nn2C)cc(OC(F)F)c1C(N)=O [Example 73, 4-[4-cyano-2-methyl-6-(1-methylpyrazol-4-yl)indazol-3-yl]-2-(difluoromethoxy)-6-methoxybenzamide] | 17.4 nM | 3.8 nM | 6.5 nM |
| COc1cc(-c2c3c(C#N)cc(-c4cnn(CC5CS(=O)(=O)C5)c4)cc3nn2C)cc(OC(F)F)c1C(=O)NCC1(F)CC1 [Example 74, 4-[4-cyano-6-[1-[(1,1-dioxothietan-3-yl)methyl]pyrazol-4-yl]-2-methylindazol-3-yl]-2-(difluoromethoxy)-N-[(1-fluorocyclopropyl)methyl]-6-methoxybenzamide] | 8.4 nM | 2.6 nM | 6.1 nM |
| COc1cc(-c2c3c(C#N)cc(-c4cnn(Cc5ncco5)c4)cc3nn2C)cc(OC(F)F)c1C(=O)NCC1(F)CC1 [Example 75] | 14.8 nM | 2.7 nM | 13.3 nM |
| COc1cc(-c2c3c(C#N)cc(-c4cnn(CC5(F)COC5)c4)cc3nn2C)cc(OC(F)F)c1C(=O)NCC1(F)CC1 [Example 76, 4-[4-cyano-6-[1-[(3-fluorooxetan-3-yl)methyl]pyrazol-4-yl]-2-methylindazol-3-yl]-2-(difluoromethoxy)-N-[(1-fluorocyclopropyl)methyl]-6-methoxybenzamide] | 17.6 nM | 5.3 nM | 11.7 nM |
| COc1cc(-c2c3c(C#N)cc(-c4cnn(C)c4)cc3nn2C)cc2c1C(=O)NCC2C (stereo not drawn) [Example 77, 3-(8-methoxy-4-methyl-1-oxo-3,4-dihydro-2H-isoquinolin-6-yl)-2-methyl-6-(1-methylpyrazol-4-yl)indazol-4-carbonitrile] | 11.8 nM | 5.2 nM | 10.1 nM |
